Structures are written as SMILES. Converted amounts (≈) assume the structure as drawn. Where two headings read alike, the source gives them in different places.

For data set [1] the following is noted: cited from earlier work.
Data set [2] in a line: Aqueous solubility of guests and solubilization by γ-CD thioethers. The data set is classed as physicochemical. Conditions: read-out: [COU]0 solubility of COU. How it is done:
(§1) Because the concentration of the free guest [G]free is determined by two coupled thermodynamic equilibria (Equation 1). The 2-phase solubility equilibrium is expressed by Equation 2 and the equilibrium of complexation by the CD host is formulated in Equation 3. The guest dissolves until the concentration of free guest is equal to the solubility of the guest, [G]0 = [G]free. Consequently, the lower the solubility of the guest in water, the lower the fraction of uncomplexed guests. The lower the concentration of the free guest, the lower the contribution of undesirable and non-specific photodimerization to the total quantum yield, according to Equation 4. Consequently, lowering the aqueous solubility of COU by the addition of salt, taking advantage of the so-called “salting-out effect” [46] appeared to be a plausible way to enhance the reaction selectivity of the syn-HH dimer.
(§2) Photoreaction procedures: Aqueous solutions of the native CDs or γ-CD thioethers (25 mL, 6.0 mM) were added into glass vials containing excess amounts of the guest molecules. To evaluate the salting-out effect on the photo-product distribution of COU, different amounts of sodium sulfate were added to the vials to obtain the desired final salt concentration (Na2SO4 concentration: 0, 0.5, 1.0, and 1.5 M). Sample solutions were thoroughly degassed using sonication. The vials were tightly sealed, protected from light, and magnetically stirred at room temperature. After 72 h, the resulting suspensions were filtered through syringe filters. The concentrations of the reactants in the CD solutions were determined from the UV–vis extinction coefficients at the absorption maxima.

On the set-up of data set [3]: method as in PMID 21739610. Conditions: K/10^9 [M^−2]; host/guest 1:2; cited from earlier work.
Data set [4] is described as follows: 1:2 (host/guest) binding constant of COU in γ-CD thioether 2 from solubility measurements. How it is done:
as §1
Both effects based on the salt concentration led to a significant reduction in the contribution of the photodimerization of free COU to the total quantum yield Φ in Equation 4. Taking into account the molar fraction of the formation of syn-HH in water [drawing 5] from Table 3 and in the complex [drawing 6] , and assuming the quantum yield for the complex as Φcomplex = 19%, the total molar fraction [drawing 7] was calculated according to Equation 5, which was derived from Equation 4. The concentration of complexed COU, [COU]C, was determined as the increase in the solubility of COU upon the addition of the host. The calculated total quantum yields and molar fractions of the syn-HH isomer, listed in Table 5, are in good agreement with the measured values, listed in Table 4. It also shoes, that the binding constant K, calculated according to the law of mass action for the 1:2 (host/guest) complex, tremendously increases with the salt concentration leading to a strong increase of the complexed portion of COU. In contrast to the previous ANT system, the quantum yield of COU photodimerization increases with the binding const K, because K is much lower for COU than for ANT so that contribution of free COU is not negligible.
as §2, with “The vials were tightly sealed, protected from light, and magnetically stirred at room temperature. After 72 h, the resulting suspensions were filtered through syringe filters.” left out

Details of data set [5]: method as in PMID 21739610. Conditions: K/10^6 M^−2; 1:2 host/guest; cited from earlier work.

For the compound `c1ccc2cc3ccccc3cc2c1` [ANT, anthracene], in data set [1] (water), the “solubility of free ANT” value is 0.0004 mM.

For `O=c1ccc2ccccc2o1` [COU, coumarin], the solubility at 72 h in data set [2] (water with Na2SO4, thermodynamic from solid, [Na2SO4] 0.5 M) turned out to be 8.5 mM (≈ 1240 µg/mL); in data set [2] (water with Na2SO4, thermodynamic from solid, [Na2SO4] 1.0 M), 4.7 mM (≈ 687 µg/mL); in data set [2] (water with Na2SO4, thermodynamic from solid, [Na2SO4] 1.5 M), 2.6 mM (≈ 380 µg/mL); in data set [2] (water, thermodynamic from solid, [Na2SO4] 0.0 M), 15.2 mM (≈ 2220 µg/mL). Further, the aqueous solubility in data set [1] (water) is 15 mM (≈ 2190 µg/mL).

`NCCSC[C@H]1O[C@@H]2O[C@H]3[C@H](O)[C@@H](O)[C@@H](O[C@H]4[C@H](O)[C@@H](O)[C@@H](O[C@H]5[C@H](O)[C@@H](O)[C@@H](O[C@H]6[C@H](O)[C@@H](O)[C@@H](O[C@H]7[C@H](O)[C@@H](O)[C@@H](O[C@H]8[C@H](O)[C@@H](O)[C@@H](O[C@H]9[C@H](O)[C@@H](O)[C@@H](O[C@H]1[C@H](O)[C@H]2O)O[C@@H]9CSCCN)O[C@@H]8CSCCN)O[C@@H]7CSCCN)O[C@@H]6CSCCN)O[C@@H]5CSCCN)O[C@@H]4CSCCN)O[C@@H]3CSCCN` [Host 1]: the “1:2 binding constant K of ANT” value in data set [3] was 22.8 10^9 M^−2. Besides, in data set [1] (6 mM solution of host in water), the “highest concentration of ANT achieved, [ANT]” value is given as 0.04 mM.

Turning to `O=C(O)CSC[C@H]1O[C@@H]2O[C@H]3[C@H](O)[C@@H](O)[C@@H](O[C@H]4[C@H](O)[C@@H](O)[C@@H](O[C@H]5[C@H](O)[C@@H](O)[C@@H](O[C@H]6[C@H](O)[C@@H](O)[C@@H](O[C@H]7[C@H](O)[C@@H](O)[C@@H](O[C@H]8[C@H](O)[C@@H](O)[C@@H](O[C@H]9[C@H](O)[C@@H](O)[C@@H](O[C@H]1[C@H](O)[C@H]2O)O[C@@H]9CSCC(=O)O)O[C@@H]8CSCC(=O)O)O[C@@H]7CSCC(=O)O)O[C@@H]6CSCC(=O)O)O[C@@H]5CSCC(=O)O)O[C@@H]4CSCC(=O)O)O[C@@H]3CSCC(=O)O` [Host 2], the “binding constant K of COU complexed in 2” value in data set [4] ([Na2SO4] 0.0 M, 1:2 host/guest, law of mass action, from solubility measurements) was 2 10^3 M^−2; in data set [4] ([Na2SO4] 0.5 M), 30 10^3 M^−2; in data set [4] ([Na2SO4] 1.0 M), 97 10^3 M^−2; in data set [4] ([Na2SO4] 1.5 M), 1000 10^3 M^−2. The “1:2 binding constant K of ANT” value in data set [3] is reported as 7.7 10^9 M^−2.

As to `O=S(=O)(O)CCSC[C@H]1O[C@@H]2O[C@H]3[C@H](O)[C@@H](O)[C@@H](O[C@H]4[C@H](O)[C@@H](O)[C@@H](O[C@H]5[C@H](O)[C@@H](O)[C@@H](O[C@H]6[C@H](O)[C@@H](O)[C@@H](O[C@H]7[C@H](O)[C@@H](O)[C@@H](O[C@H]8[C@H](O)[C@@H](O)[C@@H](O[C@H]9[C@H](O)[C@@H](O)[C@@H](O[C@H]1[C@H](O)[C@H]2O)O[C@@H]9CSCCS(=O)(=O)O)O[C@@H]8CSCCS(=O)(=O)O)O[C@@H]7CSCCS(=O)(=O)O)O[C@@H]6CSCCS(=O)(=O)O)O[C@@H]5CSCCS(=O)(=O)O)O[C@@H]4CSCCS(=O)(=O)O)O[C@@H]3CSCCS(=O)(=O)O` [Host 3], the “1:2 binding constant K of ANT” value in data set [3] was 6.8 10^9 M^−2. The “binding constant K of ACE” value in data set [5] is recorded as 37 10^6 M^−2.

`CC(SC[C@H]1O[C@@H]2O[C@H]3[C@H](O)[C@@H](O)[C@@H](O[C@H]4[C@H](O)[C@@H](O)[C@@H](O[C@H]5[C@H](O)[C@@H](O)[C@@H](O[C@H]6[C@H](O)[C@@H](O)[C@@H](O[C@H]7[C@H](O)[C@@H](O)[C@@H](O[C@H]8[C@H](O)[C@@H](O)[C@@H](O[C@H]9[C@H](O)[C@@H](O)[C@@H](O[C@H]1[C@H](O)[C@H]2O)O[C@@H]9CSC(C)C(=O)O)O[C@@H]8CSC(C)C(=O)O)O[C@@H]7CSC(C)C(=O)O)O[C@@H]6CSC(C)C(=O)O)O[C@@H]5CSC(C)C(=O)O)O[C@@H]4CSC(C)C(=O)O)O[C@@H]3CSC(C)C(=O)O)C(=O)O` (some centres unmarked) [Host 4]: the “1:2 binding constant K of ANT” value in data set [3] was 3.4 10^9 M^−2.

As for `OCC(O)CSC[C@H]1O[C@@H]2O[C@H]3[C@H](O)[C@@H](O)[C@@H](O[C@H]4[C@H](O)[C@@H](O)[C@@H](O[C@H]5[C@H](O)[C@@H](O)[C@@H](O[C@H]6[C@H](O)[C@@H](O)[C@@H](O[C@H]7[C@H](O)[C@@H](O)[C@@H](O[C@H]8[C@H](O)[C@@H](O)[C@@H](O[C@H]9[C@H](O)[C@@H](O)[C@@H](O[C@H]1[C@H](O)[C@H]2O)O[C@@H]9CSCC(O)CO)O[C@@H]8CSCC(O)CO)O[C@@H]7CSCC(O)CO)O[C@@H]6CSCC(O)CO)O[C@@H]5CSCC(O)CO)O[C@@H]4CSCC(O)CO)O[C@@H]3CSCC(O)CO` (some centres unmarked) [Host 5], in data set [3], the “1:2 binding constant K of ANT” value is listed as 3.7 10^9 M^−2.

As to `O=C(O)CCSC[C@H]1O[C@@H]2O[C@H]3[C@H](O)[C@@H](O)[C@@H](O[C@H]4[C@H](O)[C@@H](O)[C@@H](O[C@H]5[C@H](O)[C@@H](O)[C@@H](O[C@H]6[C@H](O)[C@@H](O)[C@@H](O[C@H]7[C@H](O)[C@@H](O)[C@@H](O[C@H]8[C@H](O)[C@@H](O)[C@@H](O[C@H]9[C@H](O)[C@@H](O)[C@@H](O[C@H]1[C@H](O)[C@H]2O)O[C@@H]9CSCCC(=O)O)O[C@@H]8CSCCC(=O)O)O[C@@H]7CSCCC(=O)O)O[C@@H]6CSCCC(=O)O)O[C@@H]5CSCCC(=O)O)O[C@@H]4CSCCC(=O)O)O[C@@H]3CSCCC(=O)O` [Host 6], the “1:2 binding constant K of ANT” value in data set [3] is listed as 6.5 10^9 M^−2. The “binding constant K of ACE” value in data set [5] is 27 10^6 M^−2.

Take `COCCOCCOCCSC[C@H]1O[C@@H]2O[C@H]3[C@H](O)[C@@H](O)[C@@H](O[C@H]4[C@H](O)[C@@H](O)[C@@H](O[C@H]5[C@H](O)[C@@H](O)[C@@H](O[C@H]6[C@H](O)[C@@H](O)[C@@H](O[C@H]7[C@H](O)[C@@H](O)[C@@H](O[C@H]8[C@H](O)[C@@H](O)[C@@H](O[C@H]9[C@H](O)[C@@H](O)[C@@H](O[C@H]1[C@H](O)[C@H]2O)O[C@@H]9CSCCOCCOCCOC)O[C@@H]8CSCCOCCOCCOC)O[C@@H]7CSCCOCCOCCOC)O[C@@H]6CSCCOCCOCCOC)O[C@@H]5CSCCOCCOCCOC)O[C@@H]4CSCCOCCOCCOC)O[C@@H]3CSCCOCCOCCOC` [Host 7]: the “1:2 binding constant K of ANT” value in data set [3] is listed as 7.7 10^9 M^−2.
